Reference: patent publication US20020068274A1, “Novel method for assessing recoding in vitro and in vivo” (priority 2000, published 2002)

Experiments:
transformed cell lines = conditions: cited from earlier work
antizyme = conditions: cited from earlier work
[1] = molecular target: Ova257-264-specific B3Z hybridoma; experiment: β-galactosidase-based T hybridoma stimulation assay; set-up: species or system mouse; conditions: L-Kb cells infected with rVV at 10 pfu/cell or pulsed with peptide 10^-9 M; FIGS. 4, 5
From the text: FIG. 4. The TK frameshifting element directs expression and in vitro presentation of Ova257-264 that has been shifted to RF+1. The TK frameshifting element was inserted into the SphI site of NP/Ova257-264, shifiting all downstream NP/Ova257-264-encoding sequence, including Ova257-264, into RF+1 (TK-FS). Negative and positive control TK sequences (TK-NC, and TK-IF respectively) were also inserted. L-K^b cells were infected overnight with rVVs expressing these three constructs, along with a negative control VV (VV-NC). […]
Assays for epitope expression based upon use of the B3Z T hybridoma that produces β-galactosidase upon activation, have been described previously (Wherry, et al, J. Immunol 163, no. 7:3735, 1999). […] After overnight incubation, β-galactosidase production was assessed using the fluorogenic substrate methyl umbelliferone-βgalactoside as described by Sanderson and Shastri (Sanderson and N. Shastri, Internal Immunology 158:3227, 1997).
The frameshifting element derived from the mutant (TK-FS), as well as control sequences, in which the G run required for frameshifting was deleted (TK-NC), were tested following insertion into the SphI site of the NP/Ova257-264 construct (see FIG. 2) and recognition of Ova257-264 was monitored. […]

Row | Compound | growth of transformed cell lines (transformed cell lines) | polyamine levels (antizyme) | antizyme expression (antizyme; via effect on +1 frameshifting) | Kb/Ova257-264-specific recognition (β-galactosidase production by B3Z versus BWZ) [1]
1 | N=C(N)NCCCCN [agmatine] | growth inhibition of transformed cell lines | lowered polyamine levels | capable of stimulating antizyme expression | –
2 | Ova257-264: synthetic version of the H-2Kb-restricted epitope within ovalbumin (ESIINFEK; UniProt P01012 257-264, looked up, fragment) | – | – | – | strong specific response
